Assay results from patent US6413734B1, “Method for judging effectiveness of drug having protease inhibitory activity” (Fuji Photo Film Co., LTD, priority 1999, dated 2002).

How the values were obtained:
[1] = system: Protease activity of breast cancer specimens; experiment: Protease activity measurement of frozen breast cancer slices on gelatin thin membranes containing a matrix metalloproteinase inhibitor; assay type: biochemical, human; settings: 20 breast cancer specimens; inhibitor contained in gelatin thin membrane; 37° C., 16 hours
Protocol: A breast cancer specimen, which was extracted by surgical operation and frozen, was sliced at −25° C. into slices having a thickness of 4 μm by using a cryostat, and adhered to a gelatin thin membrane disclosed in WO97/32035. The thickness of gelatin was 7 μm. This gelatin membrane was incubated at 37° C. for 16 hours under 100% of relative humidity, and then dried in air. A solution obtained by mixing a solution in which Ponceau 3R was dissolved at a concentration of 0.8% in 6% trichloroacetic acid aqueous solution and ethanol at a volume ratio of 3:7 was used as a staining solution. The membrane was immersed in the solution at room temperature for 4 minutes for staining. After the membrane was washed with water for 10 minutes, the membrane was then immersed in a Mayer's hematoxylin solution for 2 minutes for nuclear staining, and further washed with water for 10 minutes and dried in air. After the drying, a Cover Aid Film (Sakura Seiki Co., Ltd.) was adhered to the membrane using xylene to enclose the breast cancer slice. The film was held on a plastic mount and observed under an optical microscope. […]
Protease activity of breast cancer specimens, which were extracted by surgical operation and then frozen, was measured in the same manner as Example 1 using gelatin thin membranes containing a matrix metalloproteinase inhibitor (1,10-phenanthroline) disclosed in WO97/32035. […]

[2] = system: protease activity of breast cancer specimen; experiment: Gelatin digestion by breast cancer specimen collected by paracentesis and suction, pretreated with TIMP-1 and TIMP-2, on gelatin thin membrane; assay type: cell-based, human; settings: one breast cancer specimen suspended in buffer with 10 μg/ml of TIMP-1 and TIMP-2 together; 37° C., 16 hours
Protocol: Abreast cancer specimen collected by paracentesis and suction was suspended in a phosphate buffer containing 0.5% of polyvinylpyrrolidone, and adhered to a gelatin thin membrane disclosed in WO97/32035 by using a cytospin apparatus of Shandon Co., Ltd. at a speed of 400 rpm. The membrane thickness of gelatin was 7 μm. The gelatin membrane was incubated at 37° C. for 16 hours under 100% of relative humidity, and then dried in air. A solution in which Ponceau 3R was dissolved at a concentration of 0.8% in 6% trichloroacetic acid aqueous solution was used as a staining solution. The membrane was immersed in the solution at room temperature for 20 seconds for staining. […]
A breast cancer specimen collected by paracentesis and suction was suspended in a phosphate buffer containing 0.5% of polyvinylpyrrolidone and 10 μg/ml of TIMP-1 (tissue inhibitor of metalloproteinase-1) and TIMP-2, and adhered to a gelatin thin membrane disclosed in WO97/32035 by using a cytospin apparatus of Shandon Co., Ltd. at a speed of 400 rpm. […] When traces of digestion were detected in the same manner except for the treatments with TIMP-1 and TIMP-2 as a control, presence of distinct traces of digestion was observed.

Protease activity (traces of digestion on gelatin thin membrane) [1]	Compound	Gelatin digestion on sites where the cancer cells were present [2]
suppressed in all specimens	c1cnc2c(c1)ccc1cccnc12 [1,10-phenanthroline]	
	TIMP-1: tissue inhibitor of metalloproteinase-1	not observed
